Read-outs that look alike come from different tables or passages of the source.
Legend:
SARS-CoV-2 [1] = experiment: Anti-SARS-CoV-2 activity in Vero cells (virus yield inhibition); assay type: cell-based
SARS-CoV-2 [2] = experiment: Anti-SARS-CoV-2 activity in HAE-HBO (apical-out lung organoids); assay type: cell-based; details: Severe acute respiratory syndrome coronavirus 2
[3] = Non-compartmental PK analysis of IV and oral Compound A in mice; assay type: in vivo; details: for half-life: read-out: mean terminal t1/2 (converted)
Method: A study was performed to measure the concentration of Compound A ([…]) over time (hours) when administered orally at a concentration of 30 mg/kg (FIG. 8A) and intravenously at a concentration of 15 mg/kg (FIG. 8B).

[4] = Single dose range-finding study in Golden Syrian hamsters; assay type: in vivo; details: for Notes (clinical observations): hamster, in vivo, ip
Method: 3 male Syrian hamsters were injected intraperitoneally with a Compound A starting at 5 mg/kg at time 0 with […] administered every 30 minutes upto a final 80 mg/kg. Clinical observations of toxicity were recorded.

SARS-CoV-2 [5] = experiment: Anti-SARS-CoV-2 activity in Caco2 cells (virus yield inhibition)

Structure (SMILES): N#C[C@@]1(n2ccc(N)nc2=O)O[C@H](CO)[C@@H](O)[C@H]1O [Compound A, (2R,3R,4S,5R)-2-(4-amino-2-oxopyrimidin-1(2H)-yl)-3,4-dihydroxy-5-(hydroxymethyl)-tetrahydrofuran-2-carbonitrile]
- EC50 (SARS-CoV-2 [1]; Severe acute respiratory syndrome coronavirus 2, Table 1, read-out: Anti-SARS-CoV-2 Activity (Vero) EC50): 600 nM
- EC90 (SARS-CoV-2 [1]; Severe acute respiratory syndrome coronavirus 2, Table 1, read-out: Anti-SARS-CoV-2 Activity (Vero) EC90): 2300 nM
- EC50 (SARS-CoV-2 [2]): 300 nM
- EC90 (SARS-CoV-2 [2]): 500 nM
- oral bioavailability [3]: excellent oral bioavailability
- plasma concentration at start of decline ([3]; IV 15 mg/kg, FIG. 8B): around 10 μg/ml
- Mean input time (MIT) into plasma of oral dose ([3]; MRTPO−MRTIV): 1.05 h
- Ka ([3]; approximation assuming 1-compartment PK, ~1/MIT): ~0.95 h⁻¹
- half-life ([3]; mouse, plasma, 15 mg/kg, IV dose): 2.23 h
- half-life ([3]; mouse, plasma, 30 mg/kg, oral dose): 2.47 h
- concentration at 7 h ([3]; mouse, plasma, IV 15 mg/kg, over the course of 7 hours, FIG. 8B, read-out: plasma concentration after 7 hours): ~100 ng/mL
- bioavailability ([3]; mouse, plasma, oral 30 mg/kg vs IV 15 mg/kg, excluding PO_m3): 99.5%
- AUC ([3]; mouse, plasma, oral 30 mg/kg, excluding PO_m3 (possible outlier), read-out: mean oral AUCPO): 28300 ng·h/mL
- mean oral CL ([3]; oral 30 mg/kg, excluding PO_m3): 1.06 L/hr per kg
- MRTPO ([3]; oral dose): 2.65 h
- signs of toxicity ([4]; IP injection, total dose of 80 mg/kg, hamsters): no signs of toxicity
- Notes (clinical observations) ([4]; 55 mg/kg): B.A.R.* No sign of discomfort
- Notes (clinical observations) ([4]; 80 mg/kg): B.A.R.* No sign of discomfort
- EC50 (SARS-CoV-2 [5]; Severe acute respiratory syndrome coronavirus 2, Caco-2, read-out: Anti-SARS-CoV-2 Activity (Caco2) EC50): 300 nM
- EC90 (SARS-CoV-2 [5]; Severe acute respiratory syndrome coronavirus 2, Caco-2, read-out: Anti-SARS-CoV-2 Activity (Caco2) EC90): 1200 nM
